Laboratory results published in patent US20030139372A1, “Modulation of bone formation” (priority 2000, published 2003).
Entries after “also recorded” stand apart in the source; their conditions may differ.

Legend:
[1] = tested on: bone forming cells; assay: Bone anabolic activity from CFU-f and NASP cell assays combined with neonatal rat calvarial organ cultures; assay type: cell-based; settings: for bone anabolic activity: useful activity taken as equivalent to that of PGE2
Text: The main reason for the lack of understanding of the cellular basis for the actions of bone anabolic drugs is that there exists, at present, no single in vitro assay which responds to these drugs in an appropriate manner. However, we have now developed a number of assays which, when used in combination with neonatal rat calvarial organ cultures, are able to predict bone anabolic agents.
In the accompanying Figures, which are purely illustrative and not limiting on the present invention, the effect of certain compounds is shown on alkaline phosphatase activity, calcium uptake and collagen synthesis, respectively, with the final bar showing the cumulative and determinative effect of the compound on bone anabolism:
As noted above, there is no single assay that can reliably report on bone anabolic activity. Individual assays can identify certain putative bone anabolic agents but as there are many bone anabolic agents which act by a number of mechanisms, many remain unidentified. By using the CFU-f and the NASP cell assays in combination with neonatal rat calvarial organ cultures, bone anabolic agents can be reliably identified as the false negatives are reduced to a minimum.

[2] = tested on: whole bone marrow cells (BMC); assay: Fibroblastic colony forming unit (CFU-f) cultures of whole bone marrow cells; assay type: cell-based, rat; settings: for colony numbers: CFU-f colonies
Experimental: Whole bone marrow cells (BMC's) were obtained from the tibias and femurs of 125 g male Wistar rats. The bones were removed under aseptic conditions and all soft adherent tissue removed. An end of each bone was removed, a hole made in the opposing end with an 18 gauge syringe needle, and the cells isolated centrifugally [Dobson K. R., et al., Calcif tissue Int., 65:411-413 (1999)]. The cells were dispersed in 10 ml DMEM (containing 12% FCS, 1×10^−8 M dexamethasone and […] ascorbic acid) by repeated pipetting, and a single-cell suspension achieved by forcefully expelling the cells through a 20 gauge syringe needle. The cells were then used in the protocols described below. To analyse the numbers of fibroblastic-colony forming units (CFU-f) in either whole BMC or high density non-adherent stromal precursor (NASP) cell cultures, 10^6 nucleated BMC, or the non-adherent cells from the high density NASP cellcultures, were plated out on 55 cm^2 petri dishes in DMEM containing; 12% FCS, 1×10^−8 M dexamethasone and 50 μg/ml ascorbic acid. In the case of the CFU-f analysis of whole BMC, the test agents were added once at the beginning of the culture period. In the case of NASP cell cultures, the test agents were added at the beginning of the NASP cell cultures themselves and the CFU-f assay only used to assess the number of CFU-f generated during the NASP cell culture. The medium was changed after 5 days and, thereafter, twice weekly. The cultures were maintained for 18 days, after which the cells were washed with PBS and fixed, by the addition of cold ethanol. After fixation, the cultures were stained for alkaline phosphatase (APase) positive, calcium positive, collagen positive and total colonies as described by Scutt & Bertram (J. Bone and Mineral Res. 10:474-489, 1995). The cultures were then photographed using a digital camera and the APase positive, calcium positive, collagen positive and total colonies quantitated using Bioimage “Intelligent Quantifier” image analysis software [Dobson K., et al., A cost effective method for the automatic quantitative analysis of fibroblastic-colony forming units with osteoblastic potential. Calcif. Tissue Int. 65:166-172 (1999)].

[3] = tested on: neonatal rat calvariae; assay: Collagen synthesis in organ culture of neonatal rat calvariae; assay type: cell-based; settings: [3H]proline incorporation into collagenase-digestible protein; FIG. 1
Experimental: One day old rat pups were killed and the calvariae (skull cases) dissected out. The calvariae were then cut along the sagittal suture to give two hemicalvariae per foetus. Each bone was cultured in 2 ml DMEM containing 1 mg/ml BSA, 50 μg/ml ascorbic acid, 60 μg/ml penicillin, and 50 μg/ml streptomycin and 1×10^−8M dexamethasone in 35 mm tissue culture wells. After 24 h, the medium was replaced with fresh medium, any test agent added, and the tissue cultured for a further 48 h.
In this assay, each bone was pulsed with 10 μCi of [^3H]proline for 24 h at the end of the culture period. The bones were washed successively in trichloroacetic acid (TCA), acetone, and ether, and then dried. The incorporation of [^3H]proline into collagenase-digestible protein (CDP) was determined using purified bacterial collagenase by the method of Peterkofsky B. and Diegelmann R. (Biochemistry, 6: 988-994, 1971) and expressed as dpm.

[4] = tested on: non-adherent stromal precursor (NASP) cells; assay: High-density non-adherent stromal precursor (NASP) cell cultures; assay type: cell-based, rat; settings: 4 day NASP culture then CFU-f readout; FIG. 1
Experimental: Whole bone marrow cells (BMC's) were obtained from the tibias and femurs of 125 g male Wistar rats. The bones were removed under aseptic conditions and all soft adherent tissue removed. An end of each bone was removed, a hole made in the opposing end with an 18 gauge syringe needle, and the cells isolated centrifugally [Dobson K. R., et al., Calcif tissue Int., 65:411-413 (1999)]. The cells were dispersed in 10 ml DMEM (containing 12% FCS, 1×10^−8 M dexamethasone and […] ascorbic acid) by repeated pipetting, and a single-cell suspension achieved by forcefully expelling the cells through a 20 gauge syringe needle. The cells were then used in the protocols described below. […]
After fixation, the cultures were stained for alkaline phosphatase (APase) positive, calcium positive, collagen positive and total colonies as described by Scutt & Bertram (J. Bone and Mineral Res. 10:474-489, 1995). The cultures were then photographed using a digital camera and the APase positive, calcium positive, collagen positive and total colonies quantitated using Bioimage “Intelligent Quantifier” image analysis software [Dobson K., et al., A cost effective method for the automatic quantitative analysis of fibroblastic-colony forming units with osteoblastic potential. […]

Row | Structure (SMILES) | bone anabolic activity [1] | colony numbers [2] | other results
1 | CCCCC/C=C\C/C=C\CCCCCCCC(=O)O [Linoleic acid, linoleic acid] | showed bone anabolic activity | – | –
2 | CCCCCCCCCCCCCCCC(=O)OC [Methyl palmitate, methyl palmitate] | – | produced stimulation | –
3 | CCCCC[C@H](O)/C=C/[C@H]1C=CC(=O)[C@@H]1CCCCCCC(=O)O [PGA1] | – | significant dose dependent increase | response in CFU-f assay ([2]; whole BMC, 18 day culture, FIG. 1): positive response; response in calvarial collagen synthesis assay [3]: positive response; response in NASP cell assay [4]: positive response; bone anabolic activity compared with PGE2 ([1]; magnitude relative to PGE2): comparable with that produced by PGE2; also recorded: at least as good as that of PGE2
4 | CCCCC[C@H](O)/C=C/[C@H]1C=CC(=O)[C@@H]1C/C=C\CCCC(=O)O [PGA2] | useful activity | – | –
5 | CC#CCC(C)[C@H](O)/C=C/[C@@H]1[C@H]2C/C(=C/CCCC(=O)O)C[C@H]2C[C@H]1O (some centres unmarked) [iloprost] | – | stimulation comparable with that of PGA1 | –
6 | CCCCCCCC/C=C\CCCCCCCC(=O)O [oleic acid] | useful activity | – | –
7 | c1cc2c(cc1[C@H]1OC[C@H]3[C@@H]1CO[C@@H]3c1ccc3c(c1)OCO3)OCO2 [sesamin] | useful activity | – | –
